Reference: patent US9540702B2, “Stabilization of enzymes with stable coenzymes” (Roche Diabetes Care, Inc., priority 2009, dated 2017)

Columns and labels:
[1] = target: GlucDH_E170K_K252L (GlucDH-mut2) (Bacillus subtilis, UniProt P12310, A229V/A236S/E170K/Q252L); test: Residual activity of GlucDH mutant 2 after storage with coenzyme; format: biochemical; details: 24 weeks at 32° C. and 85% relative air humidity
Method: (§1) carbaNAD (FIG. 1A) or NAD were added to the glucose-specific GlucDH. These formulations were each applied to Pokalon foils (Lonza) and, after drying, stored under warm and humid conditions (32° C., 85% relative air humidity). Subsequently, the reaction kinetics and the function curve were determined at regular intervals. In parallel at each of the measurement times a cNAD/NAD analysis and a determination of the residual activity of the enzyme were carried out.
(§2) If a mutant is used instead of the wild-type enzyme (from Bacillus subtilis), it is possible to further increase the residual activity of GlucDH. After 24 weeks storage at 32° C. and 85% relative air humidity in the presence of cNAD, the residual activity of a mutant GlucDH_E96G_E170K with the amino acid substitutions glutamic acid→glycine at position 96 and glutamic acid→lysine at position 170 (GlucDH-mut1) of the wild-type enzyme is about 70%, whereas the residual activity of a mutant GlucDH_E170K_K252L with the amino acid substitutions glutamic acid→lysine at position 170 and lysine→leucine at position 252 (GlucDH-mut2) is about 50% (FIG. 8).

[2] = target: T1, alcohol dehydrogenase (ADH) (Saccharomyces cerevisiae, UniProt P00330); test: Storage of alcohol dehydrogenase detection solution with NAD or cNAD (Tables 1 and 2); format: biochemical, yeast
T1 sequence (P00330 1-348): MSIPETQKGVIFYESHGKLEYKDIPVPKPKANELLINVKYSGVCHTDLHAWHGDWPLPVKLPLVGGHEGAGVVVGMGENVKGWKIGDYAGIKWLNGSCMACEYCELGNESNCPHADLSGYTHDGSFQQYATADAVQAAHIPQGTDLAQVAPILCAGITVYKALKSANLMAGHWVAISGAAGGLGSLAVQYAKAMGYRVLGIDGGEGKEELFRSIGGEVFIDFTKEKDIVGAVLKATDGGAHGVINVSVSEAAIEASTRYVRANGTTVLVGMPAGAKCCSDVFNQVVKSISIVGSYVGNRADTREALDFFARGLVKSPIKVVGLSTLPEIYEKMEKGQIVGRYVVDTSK
Method: (§3) cNAD or NAD was added to a detection solution containing alcohol dehydrogenase. These mixtures were stored at 2-8° C. and at 35° C. Subsequently, the stability of alcohol dehydrogenase (ADH) was checked at regular intervals and the residual activity of the enzyme was determined.
If alcohol dehydrogenase is stored together with native NAD or with cNAD for several months at 2-8° C. in a refrigerator, then one observes in the case of […] a considerable decrease in enzyme activity over the entire storage period. Whereas the difference after 2 weeks storage is still slight, there is an approximately 20% higher residual activity of alcohol dehydrogenase after 12 months storage in the presence of 16 mM cNAD compared to a corresponding solution containing 16 mM NAD as the coenzyme.
Accordingly, the residual activity of alcohol dehydrogenase can be increased somewhat in samples that have been stored for 2 weeks at 2-8° C. by increasing the concentration of cNAD.

[3] = target: glucose dehydrogenase (wild-type) (Bacillus subtilis, UniProt P12310); test: DSC of coenzyme binding; details: 3.8 mM ligand; 0.1 M Tris buffer, pH 8.5
[4] = target: T1, alcohol dehydrogenase (ADH); test: Stability of alcohol dehydrogenase with coenzyme in a liquid phase at 35° C.; format: biochemical, yeast; details: 65 hours at 35° C., 5 mg/ml ADH, 50 mg/ml coenzyme, pH 9.0
Method: FIG. 12 is a graphical illustration of the stability of alcohol dehydrogenase from yeast in the presence of NAD or cNAD in a liquid phase at 35° C. for a period of 65 hours with test conditions of 5 mg/ml ADH; 50 mg/ml NAD or cNAD; buffer: 75 mM Na4P2O7; glycine, pH 9.0; temperature 35° C.
as §3
The residual activity of alcohol dehydrogenase in the presence of the native coenzyme NAD is at about 6% after 65 hours at 35° C., whereas the residual activity of the enzyme in the presence of the artificial coenzyme cNAD is still at about 60%.

[5] = target: GlucDH_E96G_E170K (GlucDH-mut1) (Bacillus subtilis, UniProt P12310, A229V/A236S/E170K/E96G/Q252K); test: Residual activity of GlucDH mutant 1 after storage with coenzyme; format: biochemical; details: 24 weeks at 32° C. and 85% relative air humidity
Method: as §1, §2

[6] = tested on: diaphorase; test: Diaphorase activity extracted from blood glucose test strips after storage; format: biochemical; details: blood glucose test strips stored at 32° C. and 30-70% relative air humidity
Method: A composition which, among others, contained glucose dehydrogenase (GlucDH), carbaNAD, diaphorase, nitrosoaniline and phosphomolybdic acid was used to determine blood glucose. Test strips were obtained by applying a first formulation to a polycarbonate foil using a doctor blade (layer height 100 μm), drying the first layer, applying a second formulation to the first layer (doctor blade gap 30 μm), and drying the second layer. The test strips were stored at 32° C. and 30-70% relative air humidity.

[7] = tested on: diaphorase; test: Diaphorase activity extracted from triglyceride test strips after storage; format: biochemical; details: triglyceride test strips stored at 32° C. and 30-70% relative air humidity
Method: A composition which, among others, contained glycerol dehydrogenase, carbaNAD, diaphorase and a tetrazolium salt was used to determine triglycerides. Test strips were obtained by applying the formulation mentioned in Table 4 to a polycarbonate foil by means of a doctor blade (layer height 80 μm) and subsequent drying, and they were stored at 32° C. and 30-70% relative air humidity.

[8] = tested on: L-lactate dehydrogenase (porcine); test: DSC of coenzyme binding; details: 3.8 mM ligand; 0.1 M Tris buffer, pH 8.5
[9] = target: T2, alcohol dehydrogenase (Saccharomyces cerevisiae, UniProt P00330); test: DSC of coenzyme binding; details: 3.8 mM ligand; 0.75M glycine sodium pyrophosphate, pH 9.0
T2 sequence (P00330 1-348): T1 sequence (P00330 1-348)

[10] = 16 mmol/l coenzyme, initial value

NC(=O)c1ccc[n+]([C@@H]2C[C@H](COP(=O)([O-])OP(=O)(O)OC[C@H]3O[C@@H](n4cnc5c(N)ncnc54)[C@H](O)[C@@H]3O)[C@@H](O)[C@H]2O)c1 [carbaNAD]
residual activity of GlucDH-mut2 [1]: about 50%
ADH activity after 2 weeks at 2-8° C. ([2]; 16 mmol/l coenzyme, 2 weeks at 2-8° C.): 100.7 % of initial value
ADH activity after 3 months at 2-8° C. ([2]; 16 mmol/l coenzyme, 3 months at 2-8° C.): 91.3 % of initial value
ADH activity after 7.5 months at 2-8° C. ([2]; 16 mmol/l coenzyme, 7.5 months at 2-8° C.): 95.6 % of initial value
ADH activity after 10 months at 2-8° C. ([2]; 16 mmol/l coenzyme, 10 months at 2-8° C.): 88.2 % of initial value
ADH activity after 12 months at 2-8° C. ([2]; 16 mmol/l coenzyme, 12 months at 2-8° C.): 83.8 % of initial value
ADH activity % of weighed amount (initial value) [2, 10]: 71.9 % of weighed amount
ADH activity U/ml (initial value) [2, 10]: 120.2 U/ml
higher residual activity of alcohol dehydrogenase compared to 0.5 mM cNAD ([2]; 2 weeks at 35° C., 15 mM cNAD): approximately 45%
higher residual activity of alcohol dehydrogenase compared to 16 mM NAD solution ([2]; 12 months at 2-8° C., 16 mM cNAD): approximately 20%
ADH activity % of weighed amount (initial value) ([2]; Sample 1, pH 7.85, 0.5 mM cNAD): 73.7 % of weighed amount
ADH activity U/ml (initial value) ([2]; Sample 1, pH 7.85, 0.5 mM cNAD): 123.1 U/ml
ADH activity after 2 weeks at 2-8° C. ([2]; Sample 1, pH 7.85, 0.5 mM cNAD): 93.8 % of initial value
ADH activity after 2 weeks at 35° C. ([2]; Sample 1, pH 7.85, 0.5 mM cNAD): 31.1 % of initial value
ADH activity % of weighed amount (initial value) ([2]; Sample 2, pH 7.85, 1 mM cNAD): 75.3 % of weighed amount
ADH activity U/ml (initial value) ([2]; Sample 2, pH 7.85, 1 mM cNAD): 125.8 U/ml
ADH activity after 2 weeks at 2-8° C. ([2]; Sample 2, pH 7.85, 1 mM cNAD): 97.7 % of initial value
ADH activity after 2 weeks at 35° C. ([2]; Sample 2, pH 7.85, 1 mM cNAD): 45.5 % of initial value
ADH activity % of weighed amount (initial value) ([2]; Sample 3, pH 7.85, 5 mM cNAD): 74.9 % of weighed amount
ADH activity U/ml (initial value) ([2]; Sample 3, pH 7.85, 5 mM cNAD): 125.1 U/ml
ADH activity after 2 weeks at 2-8° C. ([2]; Sample 3, pH 7.85, 5 mM cNAD): 101.1 % of initial value
ADH activity after 2 weeks at 35° C. ([2]; Sample 3, pH 7.85, 5 mM cNAD): 74.1 % of initial value
ADH activity % of weighed amount (initial value) ([2]; Sample 4, pH 7.85, 15 mM cNAD): 74.1 % of weighed amount
ADH activity U/ml (initial value) ([2]; Sample 4, pH 7.85, 15 mM cNAD): 123.7 U/ml
ADH activity after 2 weeks at 2-8° C. ([2]; Sample 4, pH 7.85, 15 mM cNAD): 104.0 % of initial value
ADH activity after 2 weeks at 35° C. ([2]; Sample 4, pH 7.85, 15 mM cNAD): 77.6 % of initial value
TM [3]: 58.5 °C
ΔHcal [3]: 84 kcal/mol
residual activity of alcohol dehydrogenase [4]: about 60%
residual activity of GlucDH-mut1 [5]: about 70%
residual activity of diaphorase compared to formulation containing NAD [6]: considerably increased residual activity
residual activity of diaphorase compared to formulation containing NAD [7]: considerably increased residual activity
TM [8]: 61.5 °C
ΔHcal [8]: 82 kcal/mol
TM [9]: 55.4 °C
ΔHcal [9]: 310 kcal/mol
